From patent US20240148821A1, “PHARMACEUTICAL USE OF CYCLIC PEPTIDE COMPOUND” (CHUGAI SEIYAKU KABUSHIKI KAISHA, priority 2021, published 2024)
Numbered stars: 1 amine (or outer) side, 2 acyl side, 3 side chain; on linkers, the order of the positions; unused ones are H or OH. Bridge positions count the residues as written; N and C are the ends. Square brackets hold non-standard residues; d marks the D form. Peptide text beside a SMILES is read from it. * marks the point of attachment. hPhe(3-Cl-4-CF3) = N[C@@H](CCc1ccc(C(F)(F)F)c(Cl)c1)C(=O)O; hPhe(3-F,4-CF3) = N[C@@H](CCc1ccc(C(F)(F)F)c(F)c1)C(=O)O; NEtPhe(4-CF3) = CCN[C@@H](Cc1ccc(C(F)(F)F)cc1)C(=O)O; NMePhe(4-CF3) = CN[C@@H](Cc1ccc(C(F)(F)F)cc1)C(=O)O; 3Oxa8azabicyclo(3.2.1)octane = C1CC2COCC1N2*; NMeAbu(4,4,4-F3) = CN[C@@H](CC(F)(F)F)C(=O)O; NMePhe(4-Cl) = CN[C@@H](Cc1ccc(Cl)cc1)C(=O)O; NMedβ3hAla = C[C@H](CC(=O)[*:2])N(C)[*:1]; NMeAla(cPr) = CN[C@@H](CC1CC1)C(=O)O; NMeCha = CN[C@@H](CC1CCCCC1)C(=O)O; Hyp = O=C(O)[C@@H]1C[C@@H](O)CN1; NMeChg = CN[C@H](C(=O)O)C1CCCCC1; NMeI = CC[C@H](C)[C@H](NC)C(=O)O; NMeD = CN[C@@H](CC(=O)O)C(=O)O; NMeL = CN[C@@H](CC(C)C)C(=O)O; NMeV = CN[C@H](C(=O)O)C(C)C; Trifluoroethyl = FC(F)(F)C*; d(β3hA) = C[C@@H](N)CC(=O)O; NMeS = CN[C@@H](CO)C(=O)O; Morpholide = C1CN(*)CCO1; NMeA = CN[C@@H](C)C(=O)O; NMeAib = CNC(C)(C)C(=O)O; Piperidide = C1CCN(*)CC1; Pyrrolidide = C1CCN(*)C1; Ac5c = NC1(C(=O)O)CCCC1; Aze = O=C(O)[C@@H]1CCN1; Sar = CNCC(=O)O

Key:
[1] = tested on: Human pancreatic cancer cell line AsPC-1 (G12D mutation Kras); assay: AsPC-1 cell growth inhibition (AsPC-1 CGI); assay type: cell-based; conditions: read-out: AsPC-1 cell growth inhibition, 50% growth inhibitory concentration (IC50 value); 96 hours, CellTiter-Glo, values classified in ranges
Method: Test compounds were serially dilated with dimethyl sulfoxide, and 200 nL was then dispensed to a U-bottom 96-well plate using Labcyte Echo. […] The cell suspension was dispensed to a. plate containing a test compound at 100 μL per well and incubated at 37° C. in a 5% carbon dioxide gas incubator. 96 hours later, 80 μL of CellTiter-Glo (Promega) was added to each well and fluorescence was measured.

[2] = target: protein-protein interaction between Kras and SOS1 (biotin-tagged human Kras loaded with GDP, His-tagged human SOS1) (Homo sapiens (Human), UniProt P01116, G12D); assay: Protein-protein interaction inhibition between Kras and SOS1 (KrasG12D-SOS PPI) using AlphaScreen; assay type: biochemical; conditions: AlphaScreen; biotin-tagged human Kras loaded with GDP, His-tagged human SOS1; read-out: KRAS G12D-SOS PPI IC50;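 further: kras produced in E. coli, Ni-coupled donor beads and streptavidin acceptor beads, excitation 680 nm with emission detected at 520–620 nm via singlet oxygen transfer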

Structure (SMILES) | IC50 [1] [nM] | IC50 [2] [nM]
CC[C@H](C)[C@@H]1NC(=O)[C@H](CC(C)C)N(C)C(=O)C[C@@H](C(=O)N2CCCCC2)N(C)C(=O)[C@H](C(C)C)N(C)C(=O)C2(CCCC2)NC(=O)[C@@H]2CCCN2C(=O)[C@H](CCc2ccc(C(F)(F)F)c(Cl)c2)NC(=O)CN(C)C(=O)[C@H](COCC(F)(F)F)N(C)C(=O)[C@@H]2CCN2C(=O)[C@H](C)N(C)C1=O [Compound 254] ([NMeL]I[NMeA][Aze][NMeS](Trifluoroethyl)[Sar][hPhe(3-Cl-4-CF3)]P[Ac5c][NMeV][NMeD]-Piperidide; lactam N-11) | > 500 | 15
CC[C@H](C)[C@@H]1NC(=O)[C@H](CC(C)C)N(C)C(=O)C[C@@H](C(=O)N2CCCC2)N(C)C(=O)[C@H]([C@@H](C)CC)N(C)C(=O)C2(CCCC2)NC(=O)[C@@H]2CCCN2C(=O)[C@H](CCc2ccc(C(F)(F)F)c(Cl)c2)NC(=O)CN(C)C(=O)[C@H](Cc2ccc(C(F)(F)F)cc2)N(CC)C(=O)[C@@H]2CCN2C(=O)[C@H](C)N(C)C1=O [Compound 1319] ([NMeL]I[NMeA][Aze][NEtPhe(4-CF3)][Sar][hPhe(3-Cl-4-CF3)]P[Ac5c][NMeI][NMeD]-Pyrrolidide; lactam N-11) | ≤ 20 | 0.82
CCO[C@@H]1C[C@H]2C(=O)NC3(CCCC3)C(=O)N(C)[C@@H](C3CCCCC3)C(=O)N(C)[C@H](C(=O)N3CCOCC3)CC(=O)N(C)[C@@H](CC(F)(F)F)C(=O)N[C@@H]([C@@H](C)CC)C(=O)N(C)CC(=O)N(C)CC(=O)N(C)[C@@H](Cc3ccc(C(F)(F)F)cc3)C(=O)N(C)CC(=O)N[C@@H](CCc3ccc(C(F)(F)F)c(Cl)c3)C(=O)N2C1 [Compound 1206] ([NMeAbu(4,4,4-F3)]I[Sar][Sar][NMePhe(4-CF3)][Sar][hPhe(3-Cl-4-CF3)][Hyp](Et)[Ac5c][NMeChg][NMeD]-Morpholide; lactam N-11) | ≤ 20 | 0.57
CC[C@H](C)[C@@H]1NC(=O)[C@H](CC(C)C)N(C)C(=O)C[C@@H](C(=O)N2CCCCC2)N(C)C(=O)[C@H](CC2CC2)N(C)C(=O)C2(CCCC2)NC(=O)[C@@H]2CCCN2C(=O)[C@H](CCc2ccc(C(F)(F)F)c(Cl)c2)NC(=O)CN(C)C(=O)[C@H](CC2CCCCC2)N(C)C(=O)[C@@H]2CCN2C(=O)[C@H](C)N(C)C1=O [Compound 172] ([NMeL]I[NMeA][Aze][NMeCha][Sar][hPhe(3-Cl-4-CF3)]P[Ac5c][NMeAla(cPr)][NMeD]-Piperidide; lactam N-11) | > 500 | 4
CC[C@H](C)[C@@H]1NC(=O)[C@H](CC(C)C)N(C)C(=O)C[C@@H](C)NC(=O)[C@H](C2CCCCC2)N(C)C(=O)C2(CCCC2)NC(=O)[C@@H]2CCCN2C(=O)[C@H](CCc2ccc(C(F)(F)F)c(Cl)c2)NC(=O)CN(C)C(=O)[C@H](CC2CCCCC2)N(C)C(=O)[C@@H]2CCN2C(=O)[C@H](C)N(C)C1=O [Compound 1706] (cyclo([Ac5c][NMeChg][d(β3hA)][NMeL]I[NMeA][Aze][NMeCha][Sar][hPhe(3-Cl-4-CF3)]P)) | > 500 | 140
CCO[C@@H]1C[C@H]2C(=O)NC3(CCCC3)C(=O)N(C)[C@@H](C3CCCCC3)C(=O)N(C)[C@H](C(=O)N3C4CCC3COC4)CC(=O)N(C)[C@@H](CC(C)C)C(=O)N[C@@H]([C@@H](C)CC)C(=O)N(C)CC(=O)N(C)CC(=O)N(C)[C@@H](CC3CCCCC3)C(=O)N(C)CC(=O)N[C@@H](CCc3ccc(C(F)(F)F)c(Cl)c3)C(=O)N2C1 [Compound 1977] ([NMeL]I[Sar][Sar][NMeCha][Sar][hPhe(3-Cl-4-CF3)][Hyp](Et)[Ac5c][NMeChg][NMeD]-{3Oxa8azabicyclo(3.2.1)octane}; lactam N-11) | ≤ 20 | 0.47
CC[C@H](C)[C@@H]1NC(=O)[C@H](CC(C)C)N(C)C(=O)C[C@@H](C)N(C)C(=O)[C@H]([C@@H](C)CC)NC(=O)C(C)(C)N(C)C(=O)[C@H](CC(C)C)NC(=O)[C@H](CCc2ccc(C(F)(F)F)c(F)c2)NC(=O)CN(C)C(=O)[C@H](Cc2ccc(Cl)cc2)N(C)C(=O)CN(C)C(=O)CN(C)C1=O [Compound 800] (cyclo(I[Sar][Sar][NMePhe(4-Cl)][Sar][hPhe(3-F,4-CF3)]L[NMeAib]I[NMedβ3hAla][NMeL])) | > 500 | 86
CC[C@H](C)[C@@H]1NC(=O)[C@H](C)N(C)C(=O)C[C@@H](C)NC(=O)[C@H](C(C)C)N(C)C(=O)C2(CCCC2)NC(=O)[C@@H]2CCCN2C(=O)[C@H](CCc2ccc(C(F)(F)F)c(Cl)c2)NC(=O)CN(C)C(=O)[C@H](CC2CCCCC2)N(C)C(=O)[C@@H]2CCCN2C(=O)CN(C)C1=O [Compound 1056] (cyclo([Ac5c][NMeV][d(β3hA)][NMeA]I[Sar]P[NMeCha][Sar][hPhe(3-Cl-4-CF3)]P)) | > 500 | 18
